Laboratory results taken from patent publication EP4050002A1, “ANTI-PROLIFERATIVE AGENTS” (First Health Pharmaceuticals B.V., priority 2021, dated 2022).
pIC50: −log10 of the molar value.

Tests used:
[1] = system: A549 Red-FLuc; assay: Cytotoxicity, cell count method; type: cell-based; details: Homo sapiens, 72 hours of incubation
Experimental: The anti-tumor activity of the compounds of the present invention was evaluated as the effect on the proliferation and survival of tumor cells by counting the number of living cells in presence or absence of the compounds ("cell count method"), and as the effect on the viability and metabolic activity of the cells, by using particular substrates that are converted by cellular enzymes into coloured or luminescent products, proportionally with metabolic activity and state of the cell, such as the MTS tetrazolium compound ("MTS method") or luciferin ("ATP-based method") respectively.
Cells were seeded at 3 to 5 x 10^4 cells/well density depending on cell lines and maintained at 37°C in 5% CO2. After 24 hours cells were treated with ascending concentrations of the investigational compounds and the reference (5-fluoro-Uracyl) in a range from 0 to 100 µM. Compounds were dissolved in DMSO which final concentration in each well was 0.5% v:v. After 72 h of incubation with compounds, the cells were detached with trypsin and re-suspended in 1 ml of complete medium; the cell number was evaluated using a Z2 Coulter Counter ("cell count method") (Attallah and Johnson, A simple highly sensitive methods for the determination of cell viability using an electronic particle analyzer, Coulter counter J. Immunol. Methods. 1981, 41, 155; Leonardi et al., Activated kinase screening identifies the IKBKE oncogene as a positive regulator of autophagy. Autophagy, 2019, 15, 312). Alternatively, after the 72 hours of incubation with compounds, the MTS solution (CellTiter 96® AQueous One Solution Cell Proliferation Assay) is added to each well and absorbance at 490 nm wavelength is read after 2 hours of incubation ("MTS method"). Results in Tables 8-13, 17, 18 were obtained with the cell count method. Results in Tables 14-15 were obtained with the MTS method. Results in Table 16 were obtained with ATP-based method.

[2] = target: DDX3X (Homo sapiens, UniProt O00571); assay: Helicase assay (unwinding of 18/36mer dsRNA); type: biochemical; parameters: host or cells: 293T cells (transient transfection, anti-HA immunoprecipitation, protein kept on beads); details: 50, 250 and 500 µM, in presence of ATP
Sequence of DDX3X (O00571 whole entry): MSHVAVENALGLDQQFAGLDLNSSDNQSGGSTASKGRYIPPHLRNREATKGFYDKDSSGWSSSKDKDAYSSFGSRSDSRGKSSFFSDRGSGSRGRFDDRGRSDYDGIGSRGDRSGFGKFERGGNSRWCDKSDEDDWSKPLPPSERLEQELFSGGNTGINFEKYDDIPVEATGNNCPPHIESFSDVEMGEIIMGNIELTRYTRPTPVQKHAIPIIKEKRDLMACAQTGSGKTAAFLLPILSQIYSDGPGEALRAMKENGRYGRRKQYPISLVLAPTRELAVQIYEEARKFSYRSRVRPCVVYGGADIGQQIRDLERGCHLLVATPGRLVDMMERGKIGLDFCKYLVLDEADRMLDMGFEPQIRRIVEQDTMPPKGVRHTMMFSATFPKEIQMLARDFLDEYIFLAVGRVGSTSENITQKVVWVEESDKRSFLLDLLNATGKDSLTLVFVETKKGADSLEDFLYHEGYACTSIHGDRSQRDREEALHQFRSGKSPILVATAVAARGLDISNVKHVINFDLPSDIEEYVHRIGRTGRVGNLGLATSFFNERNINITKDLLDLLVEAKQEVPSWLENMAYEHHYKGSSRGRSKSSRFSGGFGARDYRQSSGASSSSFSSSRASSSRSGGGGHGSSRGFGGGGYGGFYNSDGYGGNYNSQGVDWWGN
Experimental: The DDX3X protein was obtained by immunoprecipitation from 293T cells (3x10^5) were seeded in 6-well plates and, after 24h, transfected with 1 µg of HA-DDX3 (Addgene plasmid # 44975) by using the Lipofectamine reagent (Thermo Fischer Scientific). After 36 h, cells were lysed in NP-40 Lysis Buffer (20 mM HEPES pH=7.5, 10 mM EGTA pH=8, 40 mM β-glycerolphosphate, 1% NP40, 2.5 mM MgCl2, 2 mM Orthovanadate, 2 mM NaF, 1 mM DTT, and 1X protease inhibitors mixture) and 2 mg of proteins were immunoprecipitated with anti-HA antibodies (Covance) in NP40 lysis buffer. Immunoprecipitated samples were washed twice with lysis buffer and one time in helicase reaction buffer (50 mM Tris HCl pH=8, 1 mM DTT, 5% glycerol, 10 mM MgCl2). Beads were then resuspended in 100 µl in helicase reaction buffer. […]
Ultimately, reactions were performed in a final volume 100 µl of helicase reaction buffer plus ATP 4 mM, 30 µl of beads used to immunoprecipitate HA-DDX3X, 20 nM of 18/36mer dsRNA and 100 nM of competitor at 37°C for 1 hour and stopped by adding 10 µl of a stopping solution (EDTA 60 mM pH=8, 40% glycerol, 0.6% SDS, 1% Orange G). […] Quantification of the ssRNA was performed by the ImageJ software (version 1.53, NIH). […]

CCCCc1cn(-c2ccc(-c3nnc(-c4cccc(C(=O)O)c4)o3)cc2)nn1 [Compound 16, 3-(5-(4-(4-butyl-1H-1,2,3-triazol-1-yl)phenyl)-1,3,4-oxadiazol-2-yl)benzoic acid]
pIC50 [1]: 4.74
inhibitory effect on DDX3X helicase activity [2]: inhibitory effect on DDX3X helicase activity
